Assay [1] concerns transgenic Arabidopsis plants overexpressing Synechocystis HPPD (Seq ID: 20). Nature of the assay: Arabidopsis growth inhibition in 48-well plates, line overexpressing Synechocystis HPPD. The format is in vivo, Arabidopsis thaliana. To be noted: Synechocystis (Seq ID: 20) overexpression line; plant growth IC50 of transgenic divided by that of wildtype plants. The text has this: Various methods for the production of stably transformed plants are well known in the art. Coumarone-derivative herbicide tolerant soybean (Glycine max) or corn (Zea mays) plants can be produced by a method described by Olhoft et al. (US patent 2009/0049567). Briefly, HPPD or HST encoding polynucleotides are cloned into a binary vector using standard cloning techniques as described by Sambrook et al. (Molecular cloning (2001) Cold Spring Harbor Laboratory Press). The final vector construct contains an HPPD or HST encoding sequence flanked by a promoter sequence (e.g. the ubiquitin promoter (PcUbi) sequence) and a terminator sequence (e.g. the nopaline synthase terminator (NOS) sequence) and a resistance marker gene cassette (e.g. AHAS) (FIG. 2). Optionally, the HPPD or HST gene can provide the means of selection. Agrobacterium-mediated transformation is used to introduce the DNA into soybean's axillary meristem cells at the primary node of seedling explants. After inoculation and co-cultivation with Agrobacteria, the explants are transferred to shoot induction medium without selection for one week. […]
Depending on the species, the plants are kept at 10-25° C. or 20-35° C. […] During this time, the plants are tended and their response to the individual treatments is evaluated. […] Tolerance to coumarone-derivative herbicides can also be assessed in Arabidopsis. […]

For assay [2], the target named is T1, Arabidopsis HPPD variant M335H, P336A (Arabidopsis thaliana, UniProt P93836, M335H/P336A).
T1 construct: PCR-based site directed mutagenesis of pEXP5-NT/TOPO®-AtHPPD is done; His6 (N); made in house; host or cells: E. coli BL21 (DE3)
T1 sequence (P93836 whole entry M335H/P336A): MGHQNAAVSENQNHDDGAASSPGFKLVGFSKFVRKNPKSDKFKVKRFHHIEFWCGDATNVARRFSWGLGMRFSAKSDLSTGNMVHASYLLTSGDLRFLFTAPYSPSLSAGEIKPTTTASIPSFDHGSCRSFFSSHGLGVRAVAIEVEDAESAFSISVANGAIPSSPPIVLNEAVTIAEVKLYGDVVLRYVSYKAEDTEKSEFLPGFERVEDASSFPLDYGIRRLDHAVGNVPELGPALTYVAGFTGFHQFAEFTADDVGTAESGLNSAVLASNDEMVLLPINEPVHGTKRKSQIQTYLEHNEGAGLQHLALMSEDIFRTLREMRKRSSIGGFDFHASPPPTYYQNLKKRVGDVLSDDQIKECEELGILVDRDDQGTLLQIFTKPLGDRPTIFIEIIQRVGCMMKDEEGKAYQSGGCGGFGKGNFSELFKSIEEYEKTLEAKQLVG
Nature of the assay: HPPD activity assay, Arabidopsis HPPD mutant M335H, P336A. The format is biochemical. The note with it: normalized on Arabidopsis wild-type HPPD. The protocol: HPPD produces homogentisic acid and CO2 from 4-hydroxyphenylpyruvate (4-HPP) and O2. The activity assay for HPPD is based on the analysis of homogentisic acid by reversed phase HPLC.
The assay mixture can contain 150 mM potassium phosphate buffer pH 7.0, 50 mM L-ascorbic acid, 1 μM FeSO4 and 7 μg of purified enzyme in a total volume of 1 ml.
Inhibitors are dissolved in DMSO (dimethylsulfoxide) to a concentration of 20 mM or 0.5 mM, respectively. From this stock solution serial five-fold dilutions are prepared in DMSO, which are used in the assay. The respective inhibitor solution accounts for 1% of the assay volume. […] After a preincubation of 30 min the reaction is started by adding 4-HPP to a final concentration of 0.1 mM. The reaction is allowed to proceed for 120 min at room temperature. The reaction is stopped by addition of 100 μl of 4.5 M phosphoric acid.
Activities are normalized by setting the uninhibited enzyme activity to 100%. IC50 values are calculated using non-linear regression.
The assay mixture can contain 150 mM potassium phosphate buffer pH 7.0, 50 mM L-ascorbic acid, 100 μM Catalase (Sigma-Aldrich), 1 μM FeSO4 and 0.2 units of purified HPPD enzyme in a total volume of 505 μl. 1 unit is defined as the amount of enzyme that is required to produce 1 nmol of HGA per minute at 20° C.
Inhibitors are dissolved in DMSO (dimethylsulfoxide) to a concentration of 0.5 mM. […] IC50 values are calculated using non-linear regression. […]
Purified, mutant HPPD enzymes are obtained by the methods described above. […] Apparent michaelis constants (Km) and maximal reaction velocities (Vmax) are calculated by non-linear regression with the software GraphPad Prism 5 (GraphPad Software, La Jolla, USA) using a substrate inhibition model.
Field performance of the optimized HPPD enzyme, which is used as a herbicide tolerance trait may depend not only on its lack of sensitivity towards HPPD inhibiting herbicides but also on its activity. To assess the potential performance of a herbicide tolerance trait a tolerance index (TI) is calculated using the following formula: […]

In turn, `CC1=NOC(c2c(Cl)ccc(C3=C(O)c4ncccc4C(C)(C)S3(=O)=O)c2Cl)C1` (stereo not shown) [Inhibitor 1, 7-[2,4-dichloro-3-(3-methyl-4,5-dihydroisoxazol-5-yl)phenyl]-5,5-dimethyl-6,6-dioxo-thiopyrano[4,3-b]pyridin-8-ol] showed a Tolerance factor in assay [1] of 1. Moreover, the “Normalized tolerance index TI” value in assay [2] is reported as 1.9.

For the compound `CC1(C)c2cccnc2C(O)=C(c2ccc(Cl)nc2Cl)S1(=O)=O` [Inhibitor 2, 7-(2,6-dichloro-3-pyridyl)-5,5-dimethyl-6,6-dioxo-thiopyrano[4,3-b]pyridin-8-ol], the Tolerance factor in assay [1] is 1. For the same compound, the “Normalized tolerance index TI” value in assay [2] came to 2.8.
